From US20250228865A1, “COMPOUNDS FOR ENHANCING READ THROUGH OF GENES CONTAINING PREMATURE TERMINATION CODONS AND METHODS FOR MAKING AND USING THE SAME” (Sanofi US Services Inc., priority 2022, published 2025)

Key:
[1] = test system: recombinant human CFTR carrying the premature stop codon (PTC) mutation G542X; experiment: CFTR-PTC mutant translation readthrough, Nanoluc tagged CFTR luminescence (G542X cell line); assay type: cell-based; settings: in combination with G418, G542X cell line; for CFTR G542X ACTIVITY Fold 10 μM G-418: fold over 10 μM G-418; for EC50: 16HBE cells
Outline: (§1)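 16HBE cells stably expressing Nanoluc-tagged human CFTR with G542X or R1162X, in medium with 3 μM VX-809, treated 48 h at 37 °C with compound (10-point, 2-fold, top 50 μM final) alone or with 10 μM G418. Live-cell Nanoluc luminescence normalised to a maximally effective G418 (125-250 μM).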

[2] = test system: recombinant human CFTR carrying the premature stop codon (PTC) mutation R1162X; experiment: CFTR-PTC mutant translation readthrough, Nanoluc tagged CFTR luminescence (R1162X cell line); assay type: cell-based; settings: for CFTR R1162X ACTIVITY Fold 10 μM G-418: fold over 10 μM G-418, in combination with G418; for EC50: in combination with G418, 16HBE cells, read-out: CFTR R1162X ACTIVITY EC50
Outline: as §1

SMILES | CFTR G542X ACTIVITY Fold 10 μM G-418 [1] | EC50 [1] | CFTR R1162X ACTIVITY Fold 10 μM G-418 [2] | EC50 [2]
COC1CCN(c2ncc(OCc3c(Cl)cccc3Cl)cn2)C1 (stereo not drawn) [5-[(2,6-dichlorophenyl)methoxy]-2-(3-methoxypyrrolidin-1-yl)pyrimidine] | A′ (A′ = ≥10X) | 1000 to 10000 nM | B′ (B′ = ≥5X to <10X) | 1000 to 10000 nM
Cc1cccc(C(F)(F)F)c1COc1cnc(N2CCN(C(N)=O)[C@@H](C)C2)nc1 | A′ (A′ = ≥10X) | < 1000 nM | A′ (A′ = ≥10X) | < 1000 nM
OCc1cn(-c2ncc(OCc3c(Cl)cccc3Cl)cn2)nn1 [[1-[5-[(2,6-dichlorophenyl)methoxy]pyrimidin-2-yl]triazol-4-yl]methanol] | A′ (A′ = ≥10X) | 1000 to 10000 nM | A′ (A′ = ≥10X) | 1000 to 10000 nM
CNC(=O)N1CCN(c2ncc(OCc3c(C)cccc3C(F)(F)F)cn2)CC1 | A′ (A′ = ≥10X) | < 1000 nM | A′ (A′ = ≥10X) | < 1000 nM
OC1CCCN(c2ncc(OCc3c(Cl)cccc3Cl)cn2)C1 (stereo not drawn) [1-[5-[(2,6-dichlorophenyl)methoxy]pyrimidin-2-yl]piperidin-3-ol] | A′ (A′ = ≥10X) | < 1000 nM | A′ (A′ = ≥10X) | 1000 to 10000 nM
OC[C@H]1CN(c2ncc(OCc3c(Cl)cccc3Cl)cn2)C[C@@H](C(F)(F)F)O1 (racemic) | A′ (A′ = ≥10X) | 1000 to 10000 nM | A′ (A′ = ≥10X) | 1000 to 10000 nM
Cc1cccc(OC(F)F)c1COc1ccc(-n2cnc(CO)n2)cc1 | B′ (B′ = ≥5X to <10X) | 1000 to 10000 nM | B′ (B′ = ≥5X to <10X) | 1000 to 10000 nM
Cc1cccc(C(F)(F)F)c1COc1cnc(N2C(=O)CN(Cc3ccccc3)C2=O)nc1 | A′ (A′ = ≥10X) | < 1000 nM | A′ (A′ = ≥10X) | < 1000 nM
CC(C)C1NC(=O)N(c2ncc(OCc3c(Cl)cccc3Cl)cn2)C1=O (stereo not drawn) | A′ (A′ = ≥10X) | > 10000 nM | B′ (B′ = ≥5X to <10X) | > 10000 nM
CN1C(=O)CN(c2ccc(OCc3c(Cl)cccc3C(F)(F)F)cn2)C1=O | A′ (A′ = ≥10X) | < 1000 nM | A′ (A′ = ≥10X) | < 1000 nM
NCc1cn(-c2ccc(OCc3c(Cl)cccc3Cl)cc2)cn1 [Example 227, [1-[4-[(2,6-dichlorophenyl)methoxy]phenyl]imidazol-4-yl]methanamine] | B′ (B′ = ≥5X to <10X) | 1000 to 10000 nM | B′ (B′ = ≥5X to <10X) | 1000 to 10000 nM
NC(=O)C1CCCN(c2ncc(OCc3c(Cl)cccc3Cl)cn2)C1 (stereo not drawn) [1-[5-[(2,6-dichlorophenyl)methoxy]pyrimidin-2-yl]piperidine-3-carboxamide] | A′ (A′ = ≥10X) | < 1000 nM | A′ (A′ = ≥10X) | < 1000 nM
Cc1cccc(C(F)(F)F)c1COc1cnc(N2CCC(CO)C2)nc1 (stereo not drawn) | A′ (A′ = ≥10X) | < 1000 nM | A′ (A′ = ≥10X) | < 1000 nM
OCC(O)c1ccc(OCc2c(Cl)cccc2Cl)cn1 (stereo not drawn) [1-[5-[(2,6-dichlorophenyl)methoxy]-2-pyridyl]ethane-1,2-diol] | A′ (A′ = ≥10X) | > 10000 nM | B′ (B′ = ≥5X to <10X) | 1000 to 10000 nM
CC(=O)N[C@H]1CCN(c2ncc(OCc3c(Cl)cccc3Cl)cn2)C1 | A′ (A′ = ≥10X) | 1000 to 10000 nM | A′ (A′ = ≥10X) | 1000 to 10000 nM
OC1(c2ccccc2)CCN(c2ncc(OCc3c(Cl)cccc3Cl)cn2)CC1 [1-[5-[(2,6-dichlorophenyl)methoxy]pyrimidin-2-yl]-4-phenyl-piperidin-4-ol] | A′ (A′ = ≥10X) | < 1000 nM | A′ (A′ = ≥10X) | 1000 to 10000 nM

SMILES | CFTR G542X ACTIVITY Fold 10 μM G-418 [1] | EC50 [1] | CFTR R1162X ACTIVITY Fold 10 μM G-418 [2] | EC50 [2]
Cc1cccc(C(F)(F)F)c1COc1ccc2nc(CO)cn2c1 | A′ (A′ = ≥10X) | > 10000 nM | A′ (A′ = ≥10X) | > 10000 nM
CC(=O)N1CCN(c2ncc(OCc3c(C)cccc3C(F)(F)F)cn2)CC1CN (racemic) | C′ (C′ = <5X) | 1000 to 10000 nM | C′ (C′ = <5X) | 1000 to 10000 nM
Clc1cccc(Cl)c1COc1cnc(-c2nnn[nH]2)nc1 [5-[(2,6-dichlorophenyl)methoxy]-2-(1H-tetrazol-5-yl)pyrimidine] | – | > 10000 nM | – | > 10000 nM
Cc1cccc(C(F)(F)F)c1COc1cnc(N2CC[S+]([O-])CC2)nc1 | A′ (A′ = ≥10X) | 1000 to 10000 nM | A′ (A′ = ≥10X) | 1000 to 10000 nM
Cc1cccc(C(F)(F)F)c1COc1cnc(N2CCOC(CO)C2)nc1 (stereo not drawn) | A′ (A′ = ≥10X) | < 1000 nM | A′ (A′ = ≥10X) | < 1000 nM
O=C1OC(CO)CN1c1ncc(OCc2c(Cl)cccc2C(F)(F)F)cn1 (stereo not drawn) | A′ (A′ = ≥10X) | 1000 to 10000 nM | A′ (A′ = ≥10X) | 1000 to 10000 nM
C=C1NC(=O)N(c2ccc(OCc3c(Cl)cccc3Cl)cn2)C1=O | B′ (B′ = ≥5X to <10X) | 1000 to 10000 nM | B′ (B′ = ≥5X to <10X) | 1000 to 10000 nM
O=C1CCC(=O)N1c1ccc(OCc2c(Cl)cccc2Cl)cc1 [1-[4-[(2,6-dichlorophenyl)methoxy]phenyl]pyrrolidine-2,5-dione] | A′ (A′ = ≥10X) | 1000 to 10000 nM | B′ (B′ = ≥5X to <10X) | 1000 to 10000 nM
Cc1cccc(C(F)(F)F)c1COc1cnc(N2C(=O)CN(C)C2=O)nc1 | B′ (B′ = ≥5X to <10X) | > 10000 nM | C′ (C′ = <5X) | > 10000 nM
Cc1cccc(C(F)(F)F)c1COc1ccc(N2CC(=O)N(C)C2=O)nc1 | A′ (A′ = ≥10X) | < 1000 nM | A′ (A′ = ≥10X) | < 1000 nM
Cc1cccc(C(F)(F)F)c1COc1cnc(N2C[C@H](O)C[C@H](O)C2)nc1 | A′ (A′ = ≥10X) | 1000 to 10000 nM | A′ (A′ = ≥10X) | 1000 to 10000 nM
Cc1cccc(C(F)(F)F)c1COc1cnc(N2CCN(C(N)=O)CC2)nc1 | A′ (A′ = ≥10X) | < 1000 nM | A′ (A′ = ≥10X) | < 1000 nM
Cc1cccc(C(F)(F)F)c1COc1cnc(N2CC3CC(C2)C3O)nc1 (stereo not drawn) | A′ (A′ = ≥10X) | 1000 to 10000 nM | A′ (A′ = ≥10X) | 1000 to 10000 nM
O=C1NC2(CCCC2)C(=O)N1c1ccc(OCc2c(Cl)cccc2C(F)(F)F)cc1 | A′ (A′ = ≥10X) | < 1000 nM | B′ (B′ = ≥5X to <10X) | 1000 to 10000 nM
CNC(=O)N1CCN(c2ncc(OCc3c(Cl)cccc3Cl)cn2)CC1 | A′ (A′ = ≥10X) | < 1000 nM | A′ (A′ = ≥10X) | < 1000 nM
O=C1NC2(CC2)C(=O)N1c1ccc(OCc2c(Cl)cccc2C(F)(F)F)cc1 | A′ (A′ = ≥10X) | < 1000 nM | A′ (A′ = ≥10X) | 1000 to 10000 nM
